Experimental data published in US20250099405A1, “COMPOSITIONS, METHODS, AND DEVELOPMENT OF ARID4B INHIBITORS” (University of Kentucky Research Foundation, priority 2022, published 2025).

Assays:
[1] = system: MCF7 xenograft; test: MCF7 xenograft model; format: in vivo, SCID mice; conditions: 25 mg/kg once every two days for 24 days
Description: The effects of RWR18 on tumor growth was determined using MCF7 xenograft model. When tumor in SCID mice reached 150-200 mm^3, mice were randomized to receive vehicle or RWR18 (25 mg/kg) once every two days for 24 days. […] Bar, 5 mm.
The effects of RWR18 on tumor growth was determined using MCF7 xenograft model. When tumor in SCID mice reaches 150-200 mm^3, mice were randomized to receive vehicle or RWR18 (25 mg/kg) once every two days for 24 days.
The effects of RWR18 on tumor growth was determined using MCF7 xenograft model. When tumor in SCID mice reached 150-200 mm^3, mice were randomized to receive vehicle or RWR18 (25 mg/kg) once every two days for 24 days.

[2] = system: ERα signaling; test: qRT-PCR of ERα target genes after E2 treatment; format: cell-based; conditions: pre-treatment 5 and 10 μM
Description: The mRNA levels of GREB1, PGR, ARID4B, and MYD88 from MCF7 (A) and MCF7 Y537S cells (B) pre-treated with RWR-18 (0, 5 and 10 μM, 1 h) followed by +E2 treatment (10 nM, 4 h) were analyzed by qRT-PCR. Data are means±SEM from three biological replicate. ***, P<0.001. ns, not significant.
Consistent with knockout of ARID4B inhibited E2-induced and constitutive expression of ERα target genes, pre-treatment with RWR-18 (5 and 10 μM) abolished the induction of PGR and GREB1 genes by E2 in MCF7 and ZR75-1 cells (FIG. 18).

[3] = biological target: T1, Flag-ARID4A (Homo sapiens, UniProt P29374); test: CETSA in cells expressing Flag-ARID4A; format: cell-based; conditions: 10 μM, 2 h
T1 construct: expressed in transfected cells
T1 sequence (P29374 1-1257): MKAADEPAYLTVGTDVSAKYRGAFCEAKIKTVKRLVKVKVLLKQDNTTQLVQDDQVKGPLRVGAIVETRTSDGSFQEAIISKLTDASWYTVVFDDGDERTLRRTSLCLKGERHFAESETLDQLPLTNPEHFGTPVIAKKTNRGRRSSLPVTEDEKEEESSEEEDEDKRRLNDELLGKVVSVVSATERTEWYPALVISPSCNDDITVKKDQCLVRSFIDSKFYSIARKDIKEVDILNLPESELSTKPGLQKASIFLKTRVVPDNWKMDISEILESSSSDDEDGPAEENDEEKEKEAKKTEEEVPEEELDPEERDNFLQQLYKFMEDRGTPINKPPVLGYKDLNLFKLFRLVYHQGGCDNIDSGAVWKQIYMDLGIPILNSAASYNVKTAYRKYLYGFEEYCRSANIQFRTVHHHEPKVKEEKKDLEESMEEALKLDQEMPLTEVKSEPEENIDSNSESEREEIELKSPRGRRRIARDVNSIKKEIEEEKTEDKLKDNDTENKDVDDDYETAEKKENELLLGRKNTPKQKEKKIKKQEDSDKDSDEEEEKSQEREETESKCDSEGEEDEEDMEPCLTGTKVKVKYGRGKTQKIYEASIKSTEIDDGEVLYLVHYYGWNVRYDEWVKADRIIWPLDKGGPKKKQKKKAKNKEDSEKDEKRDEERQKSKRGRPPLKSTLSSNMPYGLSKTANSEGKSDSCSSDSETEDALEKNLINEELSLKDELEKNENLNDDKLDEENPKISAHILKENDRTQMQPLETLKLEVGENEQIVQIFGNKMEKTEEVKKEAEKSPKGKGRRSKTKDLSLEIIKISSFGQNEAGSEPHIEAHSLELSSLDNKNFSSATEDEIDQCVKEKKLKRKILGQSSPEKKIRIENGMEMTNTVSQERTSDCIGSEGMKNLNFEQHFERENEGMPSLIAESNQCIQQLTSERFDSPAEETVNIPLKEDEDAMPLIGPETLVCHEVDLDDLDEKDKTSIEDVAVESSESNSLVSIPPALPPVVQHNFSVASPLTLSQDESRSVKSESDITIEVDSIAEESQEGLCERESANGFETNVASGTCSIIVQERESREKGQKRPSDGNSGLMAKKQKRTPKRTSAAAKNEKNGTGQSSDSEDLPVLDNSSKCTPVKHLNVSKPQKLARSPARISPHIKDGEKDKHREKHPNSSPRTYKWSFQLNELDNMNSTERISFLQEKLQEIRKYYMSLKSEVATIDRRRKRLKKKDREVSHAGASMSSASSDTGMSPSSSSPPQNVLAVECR
Description: (B-C) show cells expressing HA-ARID4B (C) or HA-ARID4BIC (D) treated or not with ARD150 (10 μM) for 2 h were used for CESTA. […] (D-E) show cells expressing HA-ARID4B (D) or Flag-ARID4A (E) treated or not with RWR-18 (10 μM) for 2 h were used for CESTA. […] Data are means±SEM from three experiments. *P<0.05, **P<0.01, ns, not significant.
Using CETSA (cellular thermal shift assay) to examine whether ARD150 or RWR-18 binds to ARID4B, MCF7 cells treated or not with ARD150 or RWR-18 for 2 h were collected, followed by heating at 46, 49, 52, 55, and 58° C. to denature and precipitate ARID4B protein, cell lysis, removal of cell debris and aggregates by centrifugation, and finally detection of remaining thermostable ARID4B protein by western blot. The ARID4B aggregation temperatures without ARD150 were determined to be 49-52° C., but shifted to 52-55° C. after treatment with ARD150 and even more so with RWR-18 (FIG. 15A-D). To determine whether ARD150 and RWR-18 targets the chromodomain of ARID4B, CESTA was performed using chromodomain deletion mutant (ARID4BAC). HEK-293T cells expressing HA-ARID4B or HA-ARID4BAC were treated or not with ARD150 (10 μM) for 2 h and processed for CESTA.

O=C(COc1ccc(OCc2ccccc2)cc1)NCCCN1CCOCC1 [RWR-18]
tumor growth [1]: inhibited tumor growth
percentage of apoptotic cells in tumors ([1]; versus vehicle): increases
levels of ARID4B or MYD88 mRNA [2]: not affected
induction of PGR and GREB1 genes by E2 ([2]; MCF7 and ZR75-1 cells): abolished
shift of aggregation temperatures of Flag-ARID4A [3]: no shift was observed
